| SMILES | melting point |
| --- | --- |
| NC(=O)[C@@H](C[C@H](O)[C@H](Cc1ccccc1)NC(=O)c1cnc2ccccc2n1)C1(O)CCC(F)(F)CC1 [Example 306, Quinoxaline-2-carboxylic acid [1(S)-benzyl-4(S)-carbamoyl-4-(4,4-difluoro-1-hydroxy-cyclohexyl)-2(S)-hydroxy-butyl]-amide] | 207.5 to 208.5 °C |
| CC(C)(F)CC[C@H](C[C@H](O)[C@H](Cc1ccccc1)NC(=O)c1cnc2ccccc2n1)C(=O)NCCc1cccnc1 [Example 220, Quinoxaline-2-carboxylic acid [1(S)-benzyl-7-fluoro-2(S)-hydroxy-7-methyl-4(R)-(2-pyridin-3-yl-ethylcarbamoyl)-octyl]-amide] | 154 to 155 °C |
| NC(=O)[C@@H](C[C@H](O)[C@H](Cc1ccccc1)NC(=O)c1cnc2ccccc2n1)C1CCCCC1 [Example 168, Quinoxaline-2-carboxylic acid (1(S)-benzyl-4-carbamoyl-4(S)-cyclohexyl-2(S)-hydroxy-butyl)-amide] | 222 to 223 °C |
| CC(C)(F)CC[C@H](C[C@H](O)[C@H](Cc1ccccc1)NC(=O)c1cnc2ccccc2n1)C(=O)NCCc1ccc(S(N)(=O)=O)cc1 [Example 216, Quinoxaline-2-carboxylic acid {1(S)-benzyl-7-fluoro-2(S)-hydroxy-7-methyl-4(R)-[2-(4-sulfamoyl-phenyl)-ethylcarbamoyl]-octyl}-amide] | 207 to 210 °C |
| NC(=O)[C@@H](C[C@H](O)[C@H](Cc1ccccc1)NC(=O)c1cnc2ccccc2n1)C1(O)CCC(C(F)(F)F)CC1 (stereo partly drawn) [Example 308, Quinoxaline-2-carboxylic acid [1(S)-benzyl-4(S)-carbamoyl-2(S)-hydroxy-4-(1-hydroxy-4-trifluoromethyl-cyclohexyl)-butyl]-amide] | 250 to 252 °C |
| CC(C)C[C@H](C[C@H](O)C(Cc1ccccc1)NC(=O)c1cnc2ccccc2c1)C(=O)NCCO (stereo partly drawn) [Example 33, Quinoline-3-carboxylic acid [1-benzyl-2(S)-hydroxy-4(R)-(2-hydroxy-ethylcarbamoyl)-6-methyl-heptyl]-amide] | 158 to 162 °C |
| CC(C)CNC(=O)CC[C@H](O)[C@H](Cc1ccccc1)NC(=O)c1cnc2ccccc2n1 [Example 294, Quinoxaline-2-carboxylic acid (1(S)-benzyl-2(S)-hydroxy-4-isobutylcarbamoyl-butyl)-amide] | 146 to 148 °C |
| Cc1cccc(C[C@H](C[C@H](O)[C@H](Cc2ccccc2)NC(=O)c2cnc3ccccc3n2)C(N)=O)c1 [Example 293, Quinoxaline-2-carboxylic acid (1(S)-benzyl-4(R)-carbamoyl-2(S)-hydroxy-5-m-tolyl-pentyl)-amide] | 178 to 179 °C |
| CNC(=O)[C@H](CC(C)C)C[C@H](O)[C@H](Cc1ccc(F)cc1)NC(=O)c1cnc2ccccc2n1 [Example 90, Quinoxaline-2-carboxylic acid [1(S)-(4-fluoro-benzyl)-2(S)-hydroxy-6-methyl-4(R)-methylcarbamoyl-heptyl]-amide] | 153 to 156 °C |
| CC(C)(O)CC[C@H](C[C@H](O)[C@H](Cc1ccc(F)c(F)c1)NC(=O)c1cnc2ccccc2n1)C(N)=O [Example 323, Quinoxaline-2-carboxylic acid [4(R)-carbamoyl-1(S)-(3,4-difluoro-benzyl)-2(S),7-dihydroxy-7-methyl-octyl]-amide] | 110 to 120 °C |
| CNC(=O)[C@H](CC(C)C)C[C@H](O)[C@H](Cc1ccc2ccccc2c1)NC(=O)c1cnc2ccccc2n1 [Example 127, Quinoxaline-2-carboxylic acid (2(S)-hydroxy-6-methyl-4(R)-methylcarbamoyl-1(S)-naphthalen-2-ylmethyl-heptyl)-amide] | 121 to 123 °C |
| CCCC1CCC(O)([C@H](C[C@H](O)[C@H](Cc2ccccc2)NC(=O)c2cnc3ccccc3n2)C(=O)NO)CC1 (stereo partly drawn) [Example 301, Quinoxaline-2-carboxylic acid [1(S)-benzyl-2(S)-hydroxy-4(S)-hydroxycarbamoyl-4-(1-hydroxy-4-propyl-cyclohexyl)-butyl]-amide] | 115 to 117 °C |
| COc1ccc(CNC(=O)[C@H](CCC(C)(C)F)C[C@H](O)[C@H](Cc2ccccc2)NC(=O)c2cnc3ccccc3n2)cc1OC [Example 206, Quinoxaline-2-carboxylic acid [1(S)-benzyl-4(R)-(3,4-dimethoxy-benzylcarbamoyl)-7-fluoro-2(S)-hydroxy-7-methyl-octyl]-amide] | 162 to 164 °C |
| COc1ccc(CNC(=O)[C@H](CCC(C)(C)F)C[C@H](O)[C@H](Cc2ccccc2)NC(=O)c2cnc3ccccc3n2)cc1 [Example 236, Quinoxaline-2-carboxylic acid [1(S)-benzyl-7-fluoro-2(S)-hydroxy-4(R)-(4-methoxy-benzylcarbamoyl)-7-methyl-octyl]-amide] | 114 to 115 °C |
| CC(C)CC[C@H](C[C@H](O)[C@H](Cc1ccccc1F)NC(=O)c1cnc2ccccc2n1)C(N)=O [Example 175, Quinoxaline-2-carboxylic acid [4(R)-carbamoyl-1(S)-(2-fluoro-benzyl)-2(S)-hydroxy-7-methyl-octyl]-amide] | 213 to 215 °C |
| CC(C)(F)CC[C@H](C[C@H](O)[C@H](Cc1ccccc1)NC(=O)c1cnc2ccccc2n1)C(=O)NCC1CCCO1 (stereo partly drawn) [Example 240, Quinoxaline-2-carboxylic acid {1(S)-benzyl-7-fluoro-2(S)-hydroxy-7-methyl-4(R)-[(tetrahydrofuran-2-ylmethyl)-carbamoyl]-octyl}-amide] | 111 to 115 °C |
| CC1(C)CCC(O)([C@H](C[C@H](O)[C@H](Cc2ccccc2)NC(=O)c2cnc3ccccc3n2)C(N)=O)CC1 [Example 304, Quinoxaline-2-carboxylic acid [1(S)-benzyl-4(S)-carbamoyl-2(S)-hydroxy-4-(1-hydroxy-4,4-dimethyl-cyclohexyl)-butyl]-amide] | 210 to 211 °C |
| NC(=O)[C@H](C[C@H](O)[C@H](Cc1cccs1)NC(=O)c1cnc2ccccc2n1)C1(O)CCCCC1 [Example 268, Quinoxaline-2-carboxylic acid [4(R)-carbamoyl-2(S)-hydroxy-4-(1-hydroxy-cyclohexyl)-1(S)-thiophen-2-ylmethyl-butyl]-amide] | 206 to 207 °C |
| CC(C)(O)CC[C@H](C[C@H](O)[C@H](Cc1ccc(F)c(F)c1)NC(=O)c1cnc2ccccc2n1)C(=O)NO [Example 322, Quinoxaline-2-carboxylic acid [1(S)-(3,4-difluoro-benzyl)-2(S),7-dihydroxy-4(R)-hydroxycarbamoyl-7-methyl-octyl]-amide] | 150 to 153 °C |
| CC1CC([C@H](C[C@H](O)[C@H](Cc2ccccc2)NC(=O)c2cnc3ccccc3n2)C(N)=O)CC(C)O1 (stereo partly drawn) [Example 244, Quinoxaline-2-carboxylic acid [1(S)-benzyl-4(S)-carbamoyl-4-(2,6-dimethyl-tetrahydro-pyran-4-yl)-2(S)-hydroxy-butyl]-amide] | 195 to 198 °C |
| CC(C)CCNC(=O)[C@H](CC(C)C)C[C@H](O)[C@H](Cc1ccccc1)NC(=O)c1cnc2ccccc2c1 [Example 48, Quinoline-3-carboxylic acid [1(S)-benzyl-2(S)-hydroxy-6-methyl-4(R)-(3-methyl-butylcarbamoyl)-heptyl]-amide] | 153 to 154 °C |
